Converted amounts (≈) assume the structure as drawn.
Legend:
[1] = Solubility limit in cytotoxicity testing; type: physicochemical; conditions: cytotoxicity (MTT) assay medium; read-out: Highest concentration that could be used due to solubility limitations
Procedure: (§1) The cytotoxicity of NP16 in MDCK cells was evaluated by MTT (3-[4,5-dimethylthiazol-2-yl]-2,5-diphenyltetrazolium bromide) assay according to manufacturer's instructions. A toxic control (1%) SDS was included to ensure the MTT assay was effective. The highest concentration of NP16 that could be used was 500 μM due to solubility limitations. SigmaPlot 11.0 (SPSS, IL) was used for graph plotting. Experiments were repeated twice in triplicate.
(§2) The cytotoxicity of NP-16 and some of it analogues in Raw 264.7 cells was also evaluated by MTT (3-[4,5-dimethylthiazol-2-yl]-2,5-diphenyltetrazolium bromide) assay according to manufacturer's instructions. A toxic control (1%) SDS was included to ensure the MTT assay was working properly. The highest concentration of NP-16 analogues used was 500 μM due to solubility limitations. SigmaPlot 11.0 (SPSS, IL) was used for graph plotting. Experiments were carried out in triplicate and repeated twice.

MDCK cells = test: Cytotoxicity in MDCK cells (MTT assay); type: cell-based; conditions: up to 500 μM
Procedure: as §1
(§3) The IC50 values were obtained by fitting the inhibition data to a normal dose-response curve in SigmaPlot (CA).

Raw 264.7 cells = test: Cytotoxicity in Raw 264.7 cells (MTT assay); type: cell-based; design: unit not given here; conditions: highest concentration 500 μM
Procedure: as §2
(§4) The cytotoxicity of NP-16 and some of it analogues was tested against Raw 264.7 cells, and the cell tolerance of each compounds were documented in Table 3. Along with the in vitro staphyloxanthin production of the NP-16 analogues were being tested, the compounds can exert staphyloxanthin production inhibition. The staphyloxanthin from the overnight-cultured bacteria were extracted with methanol and quantified in via spectrophotometry. The results were presented in relative ratio to NP-16 in both the inhibition ratio as well as the TC50 in Table 3 (compound/analogue numbers correspond to those listed in Table 1).

[2] = system: S. aureus pigment formation (staphyloxanthin production); test: In vitro pigment inhibition / staphyloxanthin production in S. aureus; type: cell-based, Staphylococcus aureus; conditions: S. aureus USA300, staphyloxanthin methanol extract OD 450 nm, compounds 300 nM to 700 nM, NP16 = 1
Procedure: S. aureus was propagated in Brain Heart Infusion broth (BHI) or on BHI agar (Oxoid). The in vitro pigment inhibition studies were performed by S. aureus USA300 cultured in BHI with or without the presence of inhibitor compounds at 37° C. and 250 rpm for 36-48 hours. The bacteria were washed twice with PBS prior to the staphyloxanthin purification with methanol. The OD of the extracts were monitor at 450 nm using DTX880 multi-plate reader spectrophotometer (Beckman). The concentration range tested for the compounds were between 300 nM to 700 nM, and control groups were added with equal volume of DMSO.
as §3, §4

[3] = biological target: 4,4-diapophytoene desaturase (CrtN) (Staphylococcus aureus, UniProt Q7A3E2); conditions: reference [5]; cited from earlier work
[4] = system: polymorphonuclear leukocytes; conditions: at high concentrations, reference [14]; cited from earlier work

Sequence of 4,4-diapophytoene desaturase (CrtN) (Q7A3E2 whole entry): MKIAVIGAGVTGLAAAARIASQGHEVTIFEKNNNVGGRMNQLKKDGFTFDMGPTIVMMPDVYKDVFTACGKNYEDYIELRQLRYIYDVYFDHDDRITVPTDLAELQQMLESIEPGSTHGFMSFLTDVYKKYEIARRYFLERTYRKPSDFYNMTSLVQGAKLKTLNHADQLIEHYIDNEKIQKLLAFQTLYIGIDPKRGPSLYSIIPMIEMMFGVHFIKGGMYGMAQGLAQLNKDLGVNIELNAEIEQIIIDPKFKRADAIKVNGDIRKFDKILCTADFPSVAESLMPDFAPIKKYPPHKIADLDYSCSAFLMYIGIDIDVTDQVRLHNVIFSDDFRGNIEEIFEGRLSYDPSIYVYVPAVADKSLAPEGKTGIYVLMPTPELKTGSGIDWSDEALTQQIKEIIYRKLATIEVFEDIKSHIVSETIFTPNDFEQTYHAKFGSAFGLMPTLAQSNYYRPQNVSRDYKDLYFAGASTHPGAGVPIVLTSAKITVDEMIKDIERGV

Row | SMILES | TC50 to Raw 264.7 cells (Raw 264.7 cells) | Relative ratio to NP16 based on inhibition ratio [2] | further results
1 | O=C(/C=C/c1ccccc1)Nc1ccc(S(=O)(=O)N2CCCC2)cc1 [Compound 1, 3-phenyl-N-[4-(1-pyrrolidinylsulfonyl)phenyl]acryl-amide] | >200 |  | solubility [1]: 500 µM (≈ 178 µg/mL); Effect on the growth of MDCK cells (MDCK cells): no effect
2 | CC(=O)Oc1cccc(/C=C/C(=O)Nc2ccc(S(=O)(=O)N3CCCC3)cc2)c1 [Compound 17, 3-(5-acetoxylphenyl)-N-[4-(1-pyrrolidinylsulfonyl)phenyl]acryl-amide] | ~75 | 0.58 | 
3 | Cc1ccc(/C=C/C(=O)Nc2ccc(S(=O)(=O)N3CCCC3)cc2)cc1 [Compound 14, 3-(4-methylphenyl)-N-[4-(1-pyrrolidinylsulfonyl)phenyl]acryl-amide] | >200 | 0.83 | 
4 | O=C(/C=C/c1ccccc1Br)Nc1ccc(S(=O)(=O)N2CCCC2)cc1 [Compound 12, 3-(6-bromophenyl)-N-[4-(1-pyrrolidinylsulfonyl)phenyl]acryl-amide] | >200 | 2.35 | 
5 | CC(=O)Oc1ccc(/C=C/C(=O)Nc2ccc(S(=O)(=O)N3CCCC3)cc2)cc1 [Compound 19, 3-(4-acetoxylphenyl)-N-[4-(1-pyrrolidinylsulfonyl)phenyl]acryl-amide] | ~150 | 0.86 | 
6 | c1ccc(Nc2ccccc2)cc1 [Diphenylamine] |  |  | Inhibition of CrtN [3]: high micromolar level
7 | CN(C/C=C/c1ccccc1)Cc1cccc2ccccc12 [naftifine] |  |  | Chemotaxis, chemokinesis, chemiluminescence and superoxide anion production of polymorphonuclear leukocytes [4]: suppress
8 | O=C(/C=C/c1cccc(Br)c1)Nc1ccc(S(=O)(=O)N2CCCC2)cc1 [Compound 11, 3-(5-bromophenyl)-N-[4-(1-pyrrolidinylsulfonyl)phenyl]acryl-amide] | >200 | 1.03 | 
9 | O=C(/C=C/c1ccc(Br)cc1)Nc1ccc(S(=O)(=O)N2CCCC2)cc1 [Compound 13, 3-(4-bromophenyl)-N-[4-(1-pyrrolidinylsulfonyl)phenyl]acryl-amide] | >200 | 0.25 | 
10 | O=C(/C=C/c1ccc(O)cc1)Nc1ccc(S(=O)(=O)N2CCCC2)cc1 [Compound 16, 3-(4-hydroxylphenyl)-N-[4-(1-pyrrolidinylsulfonyl)phenyl]acryl-amide] | 75 | 0.33 | 
11 | O=C(/C=C/c1cccc(-c2ccccc2)c1)Nc1ccc(S(=O)(=O)N2CCCC2)cc1 [Compound 20, 3-(5-phenylphenyl)-N-[4-(1-pyrrolidinylsulfonyl)phenyl]acryl-amide] | >200 | 0.61 | 
12 | CC(=O)Oc1ccccc1/C=C/C(=O)Nc1ccc(S(=O)(=O)N2CCCC2)cc1 [Compound 18, 3-(6-acetoxylphenyl)-N-[4-(1-pyrrolidinylsulfonyl)phenyl]acryl-amide] | ~150 | 0.35 | 
13 | Cc1ccccc1/C=C/C(=O)Nc1ccc(S(=O)(=O)N2CCCC2)cc1 [Compound 15, 3-(6-methylphenyl)-N-[4-(1-pyrrolidinylsulfonyl)phenyl]acryl-amide] | >200 | 1.73 | 
